For this assay, the target named is T1, full-length beta-Catenin (Uniprot ID P35222) (Homo sapiens, UniProt P35222).
T1 construct: 10 nM full-length beta-Catenin (Uniprot ID P35222)
T1 sequence (P35222 1-781): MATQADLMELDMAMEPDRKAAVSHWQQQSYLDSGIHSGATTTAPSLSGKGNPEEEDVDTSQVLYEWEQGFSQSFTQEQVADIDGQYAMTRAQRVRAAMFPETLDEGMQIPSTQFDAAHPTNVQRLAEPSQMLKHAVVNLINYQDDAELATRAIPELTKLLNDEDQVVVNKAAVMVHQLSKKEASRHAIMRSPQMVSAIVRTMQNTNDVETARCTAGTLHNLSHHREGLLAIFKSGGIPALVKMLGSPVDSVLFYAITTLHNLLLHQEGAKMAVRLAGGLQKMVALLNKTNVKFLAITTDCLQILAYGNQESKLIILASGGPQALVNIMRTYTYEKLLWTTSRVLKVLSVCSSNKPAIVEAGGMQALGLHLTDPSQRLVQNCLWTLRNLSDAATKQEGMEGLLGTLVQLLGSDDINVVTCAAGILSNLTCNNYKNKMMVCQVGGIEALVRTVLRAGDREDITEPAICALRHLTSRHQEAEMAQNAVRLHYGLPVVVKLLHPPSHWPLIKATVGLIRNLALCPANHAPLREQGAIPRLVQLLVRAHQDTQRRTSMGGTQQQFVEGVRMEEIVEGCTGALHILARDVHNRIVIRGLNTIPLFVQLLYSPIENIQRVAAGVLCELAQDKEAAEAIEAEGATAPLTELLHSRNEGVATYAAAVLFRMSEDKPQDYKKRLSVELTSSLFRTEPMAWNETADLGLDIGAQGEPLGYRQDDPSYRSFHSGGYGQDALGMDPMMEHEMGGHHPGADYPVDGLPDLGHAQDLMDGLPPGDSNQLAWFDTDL
As to the kind of experiment: Fluorescence polarization IC50 (beta-catenin / 5FAM-TCF4 10-53 competition). The assay is classed as binding. The following applies: fluorescence polarization; for pIC50: read-out: beta-Catenin FP IC50. Background: Polarisation of emitted light reports the rotation of a fluorescent probe.

Our source for the IC50 values is patent US20240116985A1, “STAPLED PEPTIDES AND METHODS THEREOF” (priority 2020, published 2024).

pIC50: −log10 of the molar value. Like-named read-outs stand apart in the source and are kept apart here.

The term pIC50 denotes the negative decadic logarithm of the IC50, by convention in mol/L. In the case of `CCOC(=O)CC[C@@H]1NC(=O)[C@H](CC(=O)O)NC(=O)C2(CCCC=CCCCOC(=O)N3CC[C@@](C(=O)N[C@@H](Cc4ccsc4)C(=O)N[C@@H](Cc4csc5ccccc45)C(=O)N[C@@H](CCC(N)=O)C(N)=O)(C3)NC(=O)[C@H](CC(C)C)NC(=O)[C@H](Cc3ccccc3)NC(=O)[C@H](C)NC(=O)[C@H](C)NC1=O)CCCC=CC[C@]1(CCCN1C(C)=O)C(=O)N[C@@H](CC(=O)O)C(=O)N[C@@H](CC(C)(C)C)C(=O)N2` (stereo partly drawn) [I-2365, Ac-PL3-Asp-Npg-B5-Asp-[Et]GluE-Ala-Ala-Phe-Leu-PyrS2-3Thi-BztA-Gln-NH2], the negative-log IC50 (pIC50) is 5.46.

For the molecule `COC(=O)CC[C@@H]1NC(=O)[C@H](CC(=O)O)NC(=O)C2(CCCC=CCCCOC(=O)N3CC[C@@](C(=O)N[C@@H](Cc4ccsc4)C(=O)N[C@@H](Cc4csc5ccccc45)C(=O)N[C@@H](CCC(N)=O)C(N)=O)(C3)NC(=O)[C@H](CC(C)C)NC(=O)[C@H](Cc3ccccc3)NC(=O)[C@H](C)NC(=O)[C@H](C)NC1=O)CCCC=CC[C@]1(CCCN1C(C)=O)C(=O)N[C@@H](CC(=O)O)C(=O)N[C@@H](CC(C)(C)C)C(=O)N2` (stereo partly drawn) [I-2366, Ac-PL3-Asp-Npg-B5-Asp-[Me]GluE-Ala-Ala-Phe-Leu-PyrS2-3Thi-BztA-Gln-NH2], the pIC50 is 5.76.

With `CC(=O)N1CCC[C@]12CC=CCCCC1(CCCC=CCCCOC(=O)N3CC[C@@](C(=O)N[C@@H](Cc4ccccc4C(F)(F)F)C(=O)N[C@@H](Cc4csc5ccccc45)C(=O)N[C@@H](CO)C(N)=O)(C3)NC(=O)[C@H](CC(C)C)NC(=O)[C@H](Cc3ccccc3)NC(=O)[C@H](C)NC(=O)[C@H](C)NC(=O)[C@H](Cn3cc(CCC(=O)O)nn3)NC(=O)[C@H](CC(=O)O)NC1=O)NC(=O)[C@H](CC(C)(C)C)NC(=O)[C@H](CC(=O)O)NC2=O` (stereo partly drawn) [I-2370, Ac-PL3-Asp-Npg-B5-Asp-[CH2CH2CO2H]TriAzDap-Ala-Ala-Phe-Leu-PyrS2-2F3MeF-BztA-Ser-NH2], the pIC50 is 7.92.

On to `CC(C)C[C@@H]1NC(=O)[C@H](Cc2ccccc2)NC(=O)[C@H](C)NC(=O)[C@H](C)NC(=O)[C@H](CN(CC(=O)O)CC(F)(F)F)NC(=O)[C@H](CC(=O)O)NC(=O)C2(CCCCCCCCOC(=O)N3CC[C@@](C(=O)N[C@@H](Cc4ccsc4)C(=O)N[C@@H](Cc4csc5ccccc45)C(=O)N[C@@H](CCC(N)=O)C(N)=O)(C3)NC1=O)CCCCCCOc1cccc(c1)C(=O)N[C@@H](CC(=O)O)C(=O)N[C@@H](CC(C)(C)C)C(=O)N2` (stereo partly drawn) [I-2376, BzAm3OAllyl-Asp-Npg-B5-Asp-TfeGA-Ala-Ala-Phe-Leu-PyrS2-3Thi-BztA-Gln-NH2], for which the pIC50 is 6.45.

Regarding `CC(C)C[C@@H]1NC(=O)[C@H](Cc2ccccc2)NC(=O)[C@H](C)NC(=O)[C@H](C)NC(=O)[C@H](CN(CC(=O)O)CC(F)(F)F)NC(=O)[C@H](CC(=O)O)NC(=O)C2(CCCCCCCCOC(=O)N3CC[C@@](C(=O)N[C@@H](Cc4ccsc4)C(=O)N[C@@H](Cc4csc5ccccc45)C(=O)N[C@@H](CCC(N)=O)C(N)=O)(C3)NC1=O)CCCCCCOc1cccc(c1)C(=O)N1CCC[C@H]1C(=O)N[C@@H](CC(=O)O)C(=O)N[C@@H](CC(C)(C)C)C(=O)N2` (stereo partly drawn) [I-2377, ProBzAm3OAllyl-Asp-Npg-B5-Asp-TfeGA-Ala-Ala-Phe-Leu-PyrS2-3Thi-BztA-Gln-NH2], the pIC50 was 6.01.

Consider `CC(=O)N1CCC[C@]12CC=CCCCC1(CCCC=CCCCOC(=O)N3CC[C@@](C(=O)N[C@@H](Cc4ccccc4C(F)(F)F)C(=O)N[C@@H](Cc4csc5ccccc45)C(=O)N[C@@H](CCC(N)=O)C(=O)N[C@@H](CC(C)C)C(=O)NC4(C(N)=O)CC4)(C3)NC(=O)[C@H](CC(C)C)NC(=O)[C@H](Cc3ccccc3)NC(=O)[C@H](C)NC(=O)[C@H](C)NC(=O)[C@H](Cc3cccc(C(=O)O)c3)NC(=O)[C@H](CC(=O)O)NC1=O)NC(=O)[C@H](CC(C)(C)C)NC(=O)[C@H](CC(=O)O)NC2=O` (stereo partly drawn) [I-2389, Ac-PL3-Asp-Npg-B5-Asp-3COOHF-Ala-Ala-Phe-Leu-PyrS2-2F3MeF-BztA-Gln-Leu-Cpg-NH2], for which the pIC50 was 7.14.

For `CC(C)C[C@@H]1NC(=O)[C@H](Cc2ccccc2)NC(=O)[C@H](C)NC(=O)[C@H](C)NC(=O)[C@H](CN(CC(=O)O)CC(F)(F)F)NC(=O)[C@H](CC(=O)O)NC(=O)C2(CCCCCCCCOC(=O)N3CC[C@@](C(=O)N[C@@H](Cc4ccsc4)C(=O)N[C@@H](Cc4csc5ccccc45)C(=O)N[C@@H](CCC(N)=O)C(N)=O)(C3)NC1=O)CCCCCCOc1cccc(c1)CC(=O)N[C@@H](CC(=O)O)C(=O)N[C@@H](CC(C)(C)C)C(=O)N2` (stereo partly drawn) [I-2404, PAc3OAllyl-Asp-Npg-B5-Asp-TfeGA-Ala-Ala-Phe-Leu-PyrS2-3Thi-BztA-Gln-NH2], the pIC50 is 6.11.

Turning to `CC(C)C[C@@H]1NC(=O)[C@H](Cc2ccccc2)NC(=O)[C@H](C)NC(=O)[C@H](C)NC(=O)[C@H](CN(CC(=O)O)CC(F)(F)F)NC(=O)[C@H](CC(=O)O)NC(=O)C2(CCCCCCCCOC(=O)N3CC[C@@](C(=O)N[C@@H](Cc4ccsc4)C(=O)N[C@@H](Cc4csc5ccccc45)C(=O)N[C@@H](CCC(N)=O)C(N)=O)(C3)NC1=O)CCCCCCOc1cccc(c1)CC(=O)N1CCC[C@H]1C(=O)N[C@@H](CC(=O)O)C(=O)N[C@@H](CC(C)(C)C)C(=O)N2` (stereo partly drawn) [I-2405, ProPAc3OAllyl-Asp-Npg-B5-Asp-TfeGA-Ala-Ala-Phe-Leu-PyrS2-3Thi-BztA-Gln-NH2], the pIC50 is 6.25.

For orientation: IC50 means the concentration that gives 50% inhibition. Molecule `CC(=O)N1CC2CC1C(=O)N[C@@H](CC(=O)O)C(=O)N[C@@H](CC(C)(C)C)C(=O)NC1(CCCCCCCCOC(=O)N3CC[C@@](C(=O)N[C@@H](Cc4ccsc4)C(=O)N[C@@H](Cc4csc5ccccc45)C(=O)N[C@@H](CCC(N)=O)C(N)=O)(C3)NC(=O)[C@H](CC(C)C)NC(=O)[C@H](Cc3ccccc3)NC(=O)[C@H](C)NC(=O)[C@H](C)NC(=O)[C@H](CN(CC(=O)O)CC(F)(F)F)NC(=O)[C@H](CC(=O)O)NC1=O)CCCCCCOc1cccc(c1)CC(=O)O2` (stereo partly drawn) [I-2406, Ac-HypPAc3OAllyl-Asp-Npg-B5-Asp-TfeGA-Ala-Ala-Phe-Leu-PyrS2-3Thi-BztA-Gln-NH2] came in with an IC50 (beta-Catenin FP IC50 (nM)) of 242 nM.

Take `CC(=O)N1CCC[C@]12CC=CCCCC1(CCCC=CCCCOC(=O)N3CC[C@@](C(=O)N[C@@H](Cc4ccsc4)C(=O)N[C@@H](Cc4csc5ccccc45)C(=O)N[C@@H](C)C(N)=O)(C3)NC(=O)[C@H](CC(N)=O)NC(=O)[C@H](Cc3ccccc3)NC(=O)[C@H](C)NC(=O)C(C)(C)NC(=O)[C@H]([C@@H](C)O)NC(=O)[C@H](CC(N)=O)NC1=O)NC(=O)[C@H](CC(C)(C)C)NC(=O)[C@H](CC(=O)O)NC2=O` (stereo partly drawn) [I-2411, Ac-PL3-Asp-Npg-B5-Asn-Thr-Aib-Ala-Phe-Asn-PyrS2-3Thi-BztA-Ala-NH2]: the pIC50 is 6.85.

Turning to `CC(=O)N1CCC[C@]12CC=CCCCC1(CCCC=CCCCOC(=O)N3CC[C@@](C(=O)N[C@@H](Cc4ccsc4)C(=O)N[C@@H](Cc4csc5ccccc45)C(=O)N[C@@H](Cc4ccccc4)C(N)=O)(C3)NC(=O)[C@H](CC(N)=O)NC(=O)[C@H](Cc3ccccc3)NC(=O)[C@H](C)NC(=O)C(C)(C)NC(=O)[C@H]([C@@H](C)O)NC(=O)[C@H](CC(N)=O)NC1=O)NC(=O)[C@H](CC(C)(C)C)NC(=O)[C@H](CC(=O)O)NC2=O` (stereo partly drawn) [I-2412, Ac-PL3-Asp-Npg-B5-Asn-Thr-Aib-Ala-Phe-Asn-PyrS2-3Thi-BztA-Phe-NH2], the pIC50 is 6.57.

`CC(=O)N1CCC[C@]12CC=CCCCC1(CCCC=CCCCOC(=O)N3CC[C@@](C(=O)N[C@@H](Cc4ccccc4)C(=O)N[C@@H](Cc4csc5ccccc45)C(=O)N[C@@H](CCCCN)C(N)=O)(C3)NC(=O)[C@H](CC(C)C)NC(=O)[C@H](Cc3ccccc3)NC(=O)[C@H](C)NC(=O)[C@H](CC(N)=O)NC(=O)[C@H](CCC(N)=O)NC(=O)[C@H](CC(=O)O)NC1=O)NC(=O)[C@H](CC1CCCCC1)NC(=O)[C@H](CC(N)=O)NC2=O` (stereo partly drawn) [I-2420, Ac-PL3-Asn-Cha-B5-Asp-Gln-Asn-Ala-Phe-Leu-PyrS2-Phe-BztA-Lys-NH2]: the pIC50 is 5.67.

Take `CC(=O)N1CCC[C@]12CC=CCCCC1(CCCC=CCCCOC(=O)N3CC[C@@](C(=O)N[C@@H](Cc4ccccc4)C(=O)N[C@@H](Cc4csc5ccccc45)C(=O)N[C@@H](CCCCN)C(N)=O)(C3)NC(=O)[C@H](CC(C)C)NC(=O)[C@H](Cc3ccccc3)NC(=O)[C@H](C)NC(=O)[C@H](CO)NC(=O)[C@H](CCC(N)=O)NC(=O)[C@H](CC(=O)O)NC1=O)NC(=O)[C@H](CC1CCCCC1)NC(=O)[C@H](CC(N)=O)NC2=O` (stereo partly drawn) [I-2422, Ac-PL3-Asn-Cha-B5-Asp-Gln-Ser-Ala-Phe-Leu-PyrS2-Phe-BztA-Lys-NH2]: the pIC50 was 5.47.

In the case of `CC(=O)N1CCC[C@]12CC=CCCCC1(CCCC=CCCCOC(=O)N3CC[C@@](C(=O)N[C@@H](Cc4ccccc4)C(=O)N[C@@H](Cc4csc5ccccc45)C(=O)N[C@@H](CCCCN)C(N)=O)(C3)NC(=O)[C@H](CC(C)C)NC(=O)[C@H](Cc3ccccc3)NC(=O)[C@H](C)NC(=O)[C@H](CCCN3CCOCC3)NC(=O)[C@H](CCC(N)=O)NC(=O)[C@H](CC(=O)O)NC1=O)NC(=O)[C@H](CC1CCCCC1)NC(=O)[C@H](CC(N)=O)NC2=O` (stereo partly drawn) [I-2427, Ac-PL3-Asn-Cha-B5-Asp-Gln-MorphNva-Ala-Phe-Leu-PyrS2-Phe-BztA-Lys-NH2], the pIC50 was 6.12.
